Experimental data: ChEMBL document CHEMBL1667856, “Efficient synthesis and biological evaluation of 1,3-benzenedicarbonyl dithioureas” (Bioorg Med Chem Lett, 2011)
Values joined by “and” are separate entries in the source; they are usually repeats but may differ in a detail not shown here. Identical values can stand only once.

Legend:
[1] = Cytotoxicity against human CNE2 cells after 72 hrs by MTT assay; format: functional, cell-based, CNE-2
[2] = tested on: KB; experiment: Cytotoxicity against human KB cells after 72 hrs by MTT assay; format: functional, cell-based

| SMILES | IC50 ([1]; Homo sapiens, CNE-2, 72 h) [µM] | IC50 ([2]; Homo sapiens, KB, 72 h) [µM] | IC50 ([1]; cne-2) | IC50 ([2]; kb) |
| --- | --- | --- | --- | --- |
| O=C(NC(=S)Nc1ccc(Cl)cc1)c1cccc(C(=O)NC(=S)Nc2ccc(Cl)cc2)c1 | 15.7 | 13.7 |  |  |
| O=c1[nH]cc(F)c(=O)[nH]1 [FLUOROURACIL] |  | 15.9 |  |  |
| O=C(NC(=S)Nc1ccc(Br)cc1)c1cccc(C(=O)NC(=S)Nc2ccc(Br)cc2)c1 | 32.7 | 23.2 |  |  |
| O=C(NC(=S)Nc1ccccc1Cl)c1cccc(C(=O)NC(=S)Nc2ccccc2Cl)c1 | > 50 | 38.8 |  |  |
| O=C(NC(=S)Nc1ccc(F)cc1)c1cccc(C(=O)NC(=S)Nc2ccc(F)cc2)c1 | 33 | 43.2 |  |  |
| O=C(NC(=S)Nc1ccccc1F)c1cccc(C(=O)NC(=S)Nc2ccccc2F)c1 | 38.6 | 45 |  |  |
| O=C(NC(=S)Nc1ccccc1Br)c1cccc(C(=O)NC(=S)Nc2ccccc2Br)c1 | > 50 | 47.1 |  |  |
| O=C(NC(=S)Nc1ccccc1)c1cccc(C(=O)NC(=S)Nc2ccccc2)c1 | > 50 | > 50 |  |  |
| COc1ccc(NC(=S)NC(=O)c2cccc(C(=O)NC(=S)Nc3ccc(OC)cc3)c2)cc1 | 30.3 | > 50 |  |  |
| O=C(NC(=S)Nc1ccc([N+](=O)[O-])cc1)c1cccc(C(=O)NC(=S)Nc2ccc([N+](=O)[O-])cc2)c1 | > 50 | 35.7 |  |  |
| O=C(NC(=S)Nc1ccc(O)cc1)c1cccc(C(=O)NC(=S)Nc2ccc(O)cc2)c1 | 16.6 | 20 |  |  |
| Cc1ccccc1NC(=S)NC(=O)c1cccc(C(=O)NC(=S)Nc2ccccc2C)c1 | > 50 | > 50 |  |  |
| O=C(NC(=S)Nc1ccccc1O)c1cccc(C(=O)NC(=S)Nc2ccccc2O)c1 |  |  | 9.91 µM and > 50 µM | 10.7 µM and > 50 µM |
| O=C(NC(=S)Nc1cccc(Cl)c1)c1cccc(C(=O)NC(=S)Nc2cccc(Cl)c2)c1 | 16.3 | 12 |  |  |
| O=C(NC(=S)Nc1ccccc1C(F)(F)F)c1cccc(C(=O)NC(=S)Nc2ccccc2C(F)(F)F)c1 | 18.5 | 26.1 |  |  |
| O=C(NC(=S)Nc1cccc(Br)c1)c1cccc(C(=O)NC(=S)Nc2cccc(Br)c2)c1 | 18.6 | 15.2 |  |  |
| Cc1ccc(NC(=S)NC(=O)c2cccc(C(=O)NC(=S)Nc3ccc(C)cc3)c2)cc1 | 33 | 15.3 |  |  |
